MIC, IC50 and zone of inhibition data for 3 molecules are collected here from patent US7179828B2, “Biologically active neopeltolide compounds” (priority 2003, dated 2007).

A word on the IC50: it is the concentration that inhibits the measured activity by half.

In brackets after ≈: the same amount, converted by molar mass. Like-named read-outs stand apart in the source and are kept apart here.

What all share (assay type): cell-based
Assay [1] relates to Candida albicans (American Type Culture Collection strain 44506). The assay can be described thus: Broth dilution assay (MIC). Particulars: read-out: Minimum Inhibitory Concentration (MIC). The procedure: (§1) The antifungal activity of neopeltolide against Candida albicans (American Type Culture Collection strain 44506) was determined through the use of both agar diffusion and broth dilution assays.
Broth dilution assays were performed as standard 96-well microtiter assays in a total volume of 50 μl with a seeding density of 10^3 cells/ml. The concentration range for neopeltolide ranged from 5 to 0.4 μg/ml as two-fold dilutions.
In general terms: In broth dilution the organism is exposed to a series of concentrations in liquid medium.

Assay [2] concerns NCI-ADR-RES (Formerly MCF-7/ADR) human breast cancer. The assay can be described thus: In vitro proliferation of NCI-ADR-RES tumor cells (MTT). Particulars: 72-h exposure, read-out: NCIADR-RES IC50. The method, then:
(§2) Neopeltolide was analyzed as to its effect on the proliferation of A549 human lung adenocarcinoma, NCI-ADR-RES (Formerly MCF-7/ADR) human breast cancer and P388 murine leukemia cell lines. P388 cells were obtained from Dr. R. Camalier, National Cancer Institute, Bethesda, Md., and A549 and NCI-ADR-RES cells were obtained from American Type Culture Collection, Rockville, Md.
(§3) All cell lines are maintained in Roswell Park Memorial Institute (RPMI) medium 1640 supplemented with 100 U/mL penicillin 100 μg/ml streptomycin, 60 μg/ml L-glutamine, 18 mM HEPES, 0.05 mg/mL gentamycin and 10% fetal bovine serum. […]
(§4) A volume of 75 μl of warm growth media containing 5 mg/ml MTT is added to each well, cultures returned to the incubator, and left undisturbed for 3 hours. To spectrophotometrically quantitate formation of reduced formazan, plates are centrifuged (900×g, 5 minutes), culture fluids removed by aspiration, and 200 μl of acidified isopropanol (2 ml concentrated HC/liter isopropanol) added per well. The absorbance of the resulting solutions is measured at 570 nm with a plate reader (Spectra II Tecan Laboratories). […]
(§5) The two standard drug controls (indicated above) are included in each assay to monitor the drug sensitivity of each of the cell lines and IC50 values are determined for each drug-cell combination.

Assay [3] deals with A549 human lung adenocarcinoma. The assay can be described thus: In vitro proliferation of A549 tumor cells (MTT). The settings on record: 72-h exposure. The procedure: as §2, §3, §4, §5
The subject of assay [4] is Candida albicans (American Type Culture Collection strain 44506). Nature of the assay: Agar (disk) diffusion assay. The method, then:
as §1
Agar diffusion assays were performed using Sabouraud Dextrose agar plates seeded with the test microbe at 10^5/ml. Disks (6.35 mm, Schliecher and Schuell) were impregnated with 25 μg of neopeltolide, allowed to dry and then placed on the agar surface. After incubation at 37° C. for 24 hours the zones of growth inhibition were determined. A control disk containing 100 IU nystatin was run on the same plate as the neopeltolide: the zone of inhibition was 28 mm.

For assay [5], the system named is P388 murine leukemia. Nature of the assay: In vitro proliferation of P388 tumor cells (MTT). Particulars: Mus musculus, 48-hr exposure. The procedure:
as §2, §3, §4, §5

In the case of `Nc1nc(=O)[nH]cc1F` [5-fluorocytosine, reference compound], the MIC in assay [1] (C. albicans, 96-well broth dilution, 37° C., 24 hours, complete inhibition of growth) came to 0.62 µg/mL (≈ 4.8 µM).

For the molecule `CCCC1CC(OC)CC(C)CC2CC(OC(=O)/C=C\CCc3coc(/C=C\CNC(=O)OC)n3)CC(CC(=O)O1)O2` (stereo not shown) [Neopeltolide (I), Neopeltolide], the IC50 in assay [2] is 5.1 nM; in assay [3], 1.17 nM; in assay [5] it was 0.56 nM. The zone of inhibition at 25 µg/disc in assay [4] (Candida albicans, 24 h, read-out: growth inhibitory zone) is 17 mm. The MIC in assay [1] (24 h) came out at 0.625 µg/mL (≈ 1.06 µM).

`C[C@@H]1[C@H](O)[C@@H](C)/C=C/C=C/CC/C=C/C=C/C=C/C=C/C(O[C@H]2O[C@H](C)[C@@H](O)[C@H](N)[C@@H]2O)CC2O[C@](O)(CC(O)C(O)CCC(O)CC(O)CC(O)CC(=O)O[C@H]1C)CC(O)C2C(=O)O` (stereo partly shown) [nystatin, reference compound]: in assay [4] (control disk containing 100 IU, C. albicans, 37° C., 24 hours), the zone of inhibition is listed as 28 mm.
